Experimental data reported in patent US20040014681A1, “Method for treating dermatoses and tissue damage” (priority 2002, published 2004).

Tests used:
[1] = several rodent models of epilepsy and an animal model of kindled epilepsy; cited from earlier work
[2] = Case examples: topical treatment of poison ivy lesions; type: in vivo, human; conditions: Case 4, young person, poison ivy lesions on back, once a day application
Procedure: (§1) The following non-limiting case examples are presented to further illustrate the present invention: In the following examples, unless otherwise stated, the ointment contained about 0.15-0.22 mg of topiramate per ml of ointment (Thermaderm, an aqueous vanishing cream emollient) and sodium bicarbonate in an amount to provide a pH of about 7.8-8.
Case 3: Poison Ivy—A young child with known sensitivity to poison ivy presents with typical raised red vesicular lesions on their hands and left forearm. Topiramate cream/ointment was applied daily with the disappearance of lesions after 3 days.
Case 4: Poison Ivy—A young person having a history of extreme sensitivity to poison ivy presented with the entire right lower quadrant of their back covered with red, vesicular, and oozing lesions. These lesions cleared after four days of once a day application of Topiramate, at which time the application was stopped, leaving the skin dry with dead scales/scabs. The patient was seen four days later in this condition and began to apply Topirmate cream/lotion ever other day with complete resolution over the next six days.

[3] = adjunctive therapy or monotherapy; cited from earlier work
[4] = Case examples: topical treatment of contact dermatitis to jewelry; type: in vivo, human; conditions: Case 5, adult, recurring red oozing dermatitis under gold and stone ring
Procedure: as §1
Case 5: Contact dermatitis to jewelry. […] This was usually treated with topical 0.1% mometasone furoate once daily for six or seven days with clearing of the lesion.
Case 6. Contact dermatitis to jewelry. An adult presented with a recurring red oozing dermatitis under a tight fitting silver/gold stone bracelet on their left wrist occurring especially during the winter and usually treated with topical corticosteroids over a five day period. Topiramate cream/ointment was applied daily with complete clearing in two days.

SMILES | block of seizures [1] | time until lesions cleared [2] | efficacy in clinical trials of human epilepsy [3] | time until clearing of the lesion [4]
CC1(C)O[C@@H]2[C@@H](CO[C@@]3(COS(N)(=O)=O)OC(C)(C)O[C@@H]23)O1 [topiramate, 2,3:4,5-bis-O-(1-methylethylidence)-β-D-fructopyranose sulfamate] | effectively block seizures | four | effective as adjunctive therapy or as monotherapy | –
C[C@@H]1C[C@H]2[C@@H]3CCC4=CC(=O)C=C[C@]4(C)[C@@]3(Cl)[C@@H](O)C[C@]2(C)[C@@]1(OC(=O)c1ccco1)C(=O)CCl [mometasone furoate] | – | – | – | six or seven
